Values quoted from earlier work as cited in publication PMC5447021, “TNF Lectin-Like Domain Restores Epithelial Sodium Channel Function in Frameshift Mutants Associated with Pseudohypoaldosteronism Type 1B” (Frontiers in Immunology, 2017).

What was measured:
[1] = tested on: A549 cells; details: cited from earlier work
[2] = biological target: T1, α-hENaC (Homo sapiens, UniProt P37088); parameters: method as in PMID 24077967; details: α-hENaC alone, control current 55.3 ± 5.5 pA, mean ± S.E.; cited from earlier work
T1 construct: expressed in transfected cells; host or cells: HEK-293
T1 sequence (P37088 1-669): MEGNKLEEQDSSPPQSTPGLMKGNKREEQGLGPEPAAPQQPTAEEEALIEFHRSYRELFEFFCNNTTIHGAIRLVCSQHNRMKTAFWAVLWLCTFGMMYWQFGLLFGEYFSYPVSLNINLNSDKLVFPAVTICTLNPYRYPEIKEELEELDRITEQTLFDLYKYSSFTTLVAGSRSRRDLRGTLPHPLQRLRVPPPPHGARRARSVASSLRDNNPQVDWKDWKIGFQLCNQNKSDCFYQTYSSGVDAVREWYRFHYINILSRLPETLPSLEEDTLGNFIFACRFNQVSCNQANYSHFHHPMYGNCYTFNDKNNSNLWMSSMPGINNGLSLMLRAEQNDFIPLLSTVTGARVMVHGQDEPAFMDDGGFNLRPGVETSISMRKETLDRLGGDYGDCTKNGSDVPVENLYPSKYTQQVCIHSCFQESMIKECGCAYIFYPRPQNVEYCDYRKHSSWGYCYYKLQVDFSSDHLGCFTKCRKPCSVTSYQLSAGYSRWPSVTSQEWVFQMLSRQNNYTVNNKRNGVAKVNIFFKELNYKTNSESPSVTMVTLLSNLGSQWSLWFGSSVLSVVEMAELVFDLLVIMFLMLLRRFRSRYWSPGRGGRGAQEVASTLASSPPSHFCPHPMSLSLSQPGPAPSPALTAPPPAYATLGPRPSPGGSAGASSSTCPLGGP

[3] = tested on: V567A/E568A and V567A/E568A/E571A α-ENaC mutants; details: cited from earlier work
Description: Lucas et al. ([31]) identified positions V567, E568, and E571 in the α-subunit as the crucial sites for binding of the lectin-like domain of TNF. They generated alanine replacement mutants in this region of α-ENaC and examined its interaction with the TIP peptide. […] In fact, this applies to all the frameshift mutants examined here.

[4] = biological target: T2, αβγ-hENaC (Homo sapiens, UniProt P37088+P51168+P51170); parameters: method as in 2 sources, ref 16 = [16]; PMID 24077967; doi:10.1124/mol.113.089409; 16 Shabbir W Scherbaum-Hazemi P Tzotzos S Fischer B Fischer H Pietschmann H Mechanism of action of novel lung edema therapeutic AP301 by activation of the epithelial sodium channel . Mol Pharmacol ( 2 ||| ref 24 = [24]; PMID 20979368; doi:10.1021/jm100767p; 24 Hazemi P Tzotzos SJ Fischer B Andavan GS Fischer H Pietschmann H Essential structural features of TNF-α lectin-like domain derived peptides for activation of amiloride-sensitive sodium current in A; details: αβγ-hENaC in HEK-293, whole-cell, -100 mV, amiloride-sensitive control current 75.8 ± 4.5 pA, mean ± S.E.; cited from earlier work
T2 construct: expressed in transfected cells; host or cells: HEK-293
T2 sequence (P37088 1-669): T1 sequence (P37088 1-669)
T2 sequence (P51168 1-640 partner): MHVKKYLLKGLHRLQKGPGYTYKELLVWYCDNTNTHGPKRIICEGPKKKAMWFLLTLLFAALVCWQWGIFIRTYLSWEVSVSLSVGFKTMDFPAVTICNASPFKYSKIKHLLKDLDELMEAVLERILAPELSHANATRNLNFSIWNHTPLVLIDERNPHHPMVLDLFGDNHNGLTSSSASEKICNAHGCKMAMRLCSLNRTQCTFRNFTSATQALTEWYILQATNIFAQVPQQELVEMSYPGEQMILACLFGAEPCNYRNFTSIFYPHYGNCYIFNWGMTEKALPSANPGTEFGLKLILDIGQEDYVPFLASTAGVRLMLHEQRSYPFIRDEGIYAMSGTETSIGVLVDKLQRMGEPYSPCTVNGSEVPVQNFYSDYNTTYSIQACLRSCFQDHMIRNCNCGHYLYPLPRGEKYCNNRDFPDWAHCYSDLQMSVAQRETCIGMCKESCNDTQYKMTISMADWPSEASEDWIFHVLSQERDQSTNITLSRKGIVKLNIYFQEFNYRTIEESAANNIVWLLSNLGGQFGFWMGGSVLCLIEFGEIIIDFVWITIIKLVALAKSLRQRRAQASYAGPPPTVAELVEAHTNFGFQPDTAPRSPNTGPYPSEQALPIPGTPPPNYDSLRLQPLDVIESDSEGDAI
T2 sequence (P51170 1-649 partner): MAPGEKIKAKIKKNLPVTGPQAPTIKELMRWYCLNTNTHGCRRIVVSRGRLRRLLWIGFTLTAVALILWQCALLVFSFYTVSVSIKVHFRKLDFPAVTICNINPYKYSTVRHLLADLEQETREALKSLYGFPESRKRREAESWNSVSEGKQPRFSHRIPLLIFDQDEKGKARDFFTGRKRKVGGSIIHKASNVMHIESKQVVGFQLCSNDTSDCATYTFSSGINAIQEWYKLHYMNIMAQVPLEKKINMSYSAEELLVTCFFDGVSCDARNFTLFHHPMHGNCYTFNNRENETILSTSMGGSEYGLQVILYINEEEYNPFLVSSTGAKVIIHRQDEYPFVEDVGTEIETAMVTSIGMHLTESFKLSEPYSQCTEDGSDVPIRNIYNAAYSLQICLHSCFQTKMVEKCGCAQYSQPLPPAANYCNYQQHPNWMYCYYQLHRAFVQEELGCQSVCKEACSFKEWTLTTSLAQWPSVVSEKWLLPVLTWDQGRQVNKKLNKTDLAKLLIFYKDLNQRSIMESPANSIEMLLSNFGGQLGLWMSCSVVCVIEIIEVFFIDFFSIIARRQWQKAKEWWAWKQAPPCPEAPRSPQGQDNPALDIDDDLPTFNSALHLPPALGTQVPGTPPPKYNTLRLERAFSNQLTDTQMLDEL

C[C@@H]1NC(=O)CNC(=O)[C@H](CCC(=O)O)NC(=O)[C@@H]2CCCN2C(=O)[C@H]([C@@H](C)O)NC(=O)[C@H](CCC(=O)O)NC(=O)[C@H](CCCNC(=N)N)NC(=O)[C@H](CCC(N)=O)NC(=O)CNC(=O)[C@@H](N)CSSC[C@@H](C(=O)O)NC(=O)[C@H](Cc2ccc(O)cc2)NC(=O)[C@H](Cc2c[nH]c3ccccc23)NC(=O)[C@@H]2CCCN2C(=O)[C@H](CCCCN)NC(=O)[C@H](C)NC(=O)[C@H](CCC(=O)O)NC1=O [solnatide, L-cysteine, L-cysteinylglycyl-L-glutaminyl-L-arginyl-L-α-glutamyl-L-threonyl-L-prolyl-L-α-glutamylglycyl-L-alanyl-L-α-glutamyl-L-alanyl-L-lysyl-L-prolyl-L-tryptophyl-L-tyrosyl-, cyclic (1→17)-disulfide]
Increase in single channel parameters after PNGase F ([1]; A549 cells, PNGase F pretreated): completely abolished in PNGase F pretreated cells
Single channel open probability, mean open time, number and duration of bursts ([1]; A549 cells): significantly increased
Effect on current, A549 cells ([1]; endogenous α-, β-, γ-, δ-subunits): current activating effect
Maximal induced current, solnatide [2]: 11.3 ± 6.2 pA
Binding capacity ([3]; double V567A/E568A and triple V567A/E568A/E571A α-ENaC mutants): reduced binding capacity
Increase in Po ([3]; double and triple α-ENaC TM2 alanine mutants vs WT ENaC): abolition of the increase in Po
Maximal induced current, solnatide [4]: 953.2 ± 11.5 pA
